Source: US11585779B2, “Biosensor and method of using the same for evaluation of antioxidant capacity” (Nanjing Agricultural University, priority 2017, dated 2023)

Test system: macrophage RAW264.7
Test: Evaluation of antioxidant capacity with macrophage RAW264.7 biosensor (PMA stimulation, differential pulse voltammetry)
Format: cell-based
Settings: 0.6% solution in absolute ethanol; 100 ng/mL PMA, 10 min; 0.1 M PBS
Method: The electrochemical experiments in 3) can be a differential pulse voltammetry (DPV), and the DPV conditions can be as follows: scanning range: -0.2 to 0.6 V, amplitude: 0.05 V.
The relative antioxidant capacity value in 5) can be calculated by the following equation:
[formula] where RAC is the relative antioxidant capacity value, I0 is the peak current obtained in the presence of 100 ng/mL PMA, Is is the peak current in the presence of the test sample, and I is the peak current in the absence of PMA.
immersing a third biosensor in Tyrode's buffer at 37° C. for 10 min, washing the third biosensor with PBS buffer for 3 times, connecting the third biosensor to a third electrochemical workstation, and conducting an electrochemical experiment of the third biosensor in a solution containing 1.0 mM Fe(CN)6^3−, 1.0 mM Fe(CN)6^4− or 0.1 M PBS, recording the current signal, reading the peak current and marking as I.
In the following examples, the differential pulse voltammetry is selected as the electrochemical experiment method.
Positive control: a first biosensor was immersed in Tyrode's buffer at 37° C. (preparation of Tyrode's solution: 1000 mL Tyrode's solution: NaCl 8.0 g, 10% KCl 2.0 mL (0.2 g), 10% MgSO4.7H2O 2.6 mL (0.26 g), 5% NaH2PO4.2H2O 1.3 mL (0.065 g), NaHCO3 1.0 g, 1 M CaCl2 1.8 mL (0.2 g), glucose 1.0 g), and PMA was then added to a concentration of 100 ng/mL. 10 min later, the first biosensor was washed with PBS buffer for 3 times (phosphate buffered saline) at pH=7.4, and then was connected to the electrochemical workstation. The first biosensor was electrochemically detected in a solution containing 1.0 mM Fe(CN)6^3−, and the current signal was recorded and the peak current was read as I0=84.6 μA.
Blank control: a third biosensor was immersed in Tyrode's buffer at 37° C. […] The […] was electrochemically detected in a solution containing 1.0 mM Fe(CN)6^3−, and the current signal was recorded and the peak current was read as I=21.5 μA. […]
3) Electrochemical experiment: the second biosensor was used for electrochemical experiment in a PBS solution containing 1.0 mM Fe(CN)6^3−. Subsequently, the current signal and the peak current ls1 were recorded and read, respectively. […]
3) Electrochemical experiment: the biosensor IV was used for electrochemical experiment in a solution containing 1.0 mM Fe(CN)6^4−. Subsequently, the current signal was recorded and the peak current Is2 was read, where Is2=24.7 μA. […]
3) Electrochemical experiment: the biosensor was used for electrochemical experiment in a solution containing 0.1 M (mol/L) PBS. Subsequently, the current signal was recorded and the peak current Is3 was read, where Is3=26.5 μA. […]

SMILES	peak current Is3	relative antioxidant value (RAC3)	relative antioxidant value (RAC4)	peak current Is4
Cc1c(C)c2c(c(C)c1O)CC[C@@](C)(CCC[C@H](C)CCC[C@H](C)CCCC(C)C)O2 [VE, Vitamin E]	26.5 μA	92.2%	94.2%	
O=C1O[C@H]([C@@H](O)CO)C(O)=C1O [VC, Vitamin C]				25.3 μA
